Measurements taken from ChEMBL document CHEMBL1201862, “PubChem BioAssay data set” (2004).
“And” between values parts separate entries of the source, which are not always exact repeats. Equal entries are not always repeated. The source made the active and inactive calls.

How the values were obtained:
[1] = biological target: Serine/threonine-protein phosphatase PP1-alpha catalytic subunit (Homo sapiens, UniProt P62136); assay: inhibition of protein phosphatase 1 activity – biochemical, fluorescence, dose response (AID 2394)
Chain of Serine/threonine-protein phosphatase PP1-alpha catalytic subunit (P62136 whole entry): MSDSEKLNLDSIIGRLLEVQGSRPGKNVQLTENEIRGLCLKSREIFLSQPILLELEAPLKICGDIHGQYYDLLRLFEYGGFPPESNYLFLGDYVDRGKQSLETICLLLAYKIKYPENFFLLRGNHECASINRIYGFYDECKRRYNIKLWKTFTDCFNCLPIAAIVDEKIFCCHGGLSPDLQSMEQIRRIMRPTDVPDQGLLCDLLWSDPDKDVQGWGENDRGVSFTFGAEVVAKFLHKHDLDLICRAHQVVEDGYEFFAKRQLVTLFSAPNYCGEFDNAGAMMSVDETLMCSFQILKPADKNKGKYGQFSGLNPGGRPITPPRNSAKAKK

[2] = biological target: Serine/threonine-protein phosphatase (Homo sapiens, UniProt Q9BPW0); assay: inhibition of protein phosphatase 5 activity – biochemical, fluorescence, dose response (AID 2395)
Chain of Serine/threonine-protein phosphatase (Q9BPW0 whole entry): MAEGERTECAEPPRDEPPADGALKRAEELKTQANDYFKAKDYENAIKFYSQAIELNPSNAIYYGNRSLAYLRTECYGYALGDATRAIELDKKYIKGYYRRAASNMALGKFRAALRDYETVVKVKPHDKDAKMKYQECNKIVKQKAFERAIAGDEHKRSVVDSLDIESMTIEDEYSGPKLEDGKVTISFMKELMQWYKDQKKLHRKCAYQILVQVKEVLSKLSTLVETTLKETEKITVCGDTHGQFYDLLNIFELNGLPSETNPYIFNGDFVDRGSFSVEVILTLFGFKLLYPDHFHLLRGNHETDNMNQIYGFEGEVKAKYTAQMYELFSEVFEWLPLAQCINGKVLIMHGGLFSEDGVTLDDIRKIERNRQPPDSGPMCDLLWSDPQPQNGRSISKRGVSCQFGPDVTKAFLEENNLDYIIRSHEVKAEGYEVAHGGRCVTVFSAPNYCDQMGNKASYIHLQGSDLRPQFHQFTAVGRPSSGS

Galanin receptor type 2 = Galanin receptor type 2 (Homo sapiens, UniProt O43603); assay: Dose Response cell-based high-throughput screening assay to identify antagonists of galanin receptor 2 (GALR2). [Related pubchem assays: 828, 866 ]; assay type: functional
Chain of Galanin receptor type 2 (O43603 whole entry): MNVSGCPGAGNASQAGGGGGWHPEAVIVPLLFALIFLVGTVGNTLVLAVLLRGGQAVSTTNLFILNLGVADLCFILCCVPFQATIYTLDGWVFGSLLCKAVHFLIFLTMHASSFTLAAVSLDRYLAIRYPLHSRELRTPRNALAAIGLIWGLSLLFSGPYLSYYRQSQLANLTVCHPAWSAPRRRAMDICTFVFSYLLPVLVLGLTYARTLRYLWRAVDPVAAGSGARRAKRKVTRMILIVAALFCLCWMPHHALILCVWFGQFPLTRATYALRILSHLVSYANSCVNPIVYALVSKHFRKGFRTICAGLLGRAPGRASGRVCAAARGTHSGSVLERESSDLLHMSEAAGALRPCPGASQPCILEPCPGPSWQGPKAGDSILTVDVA

[3] = loss of viability in HepG2 cells – cell-based, CellTiter-Glo, cherry-picked, cytotoxicity control for Shn3 inhibitor project, dose response (AID 624134); assay type: functional
[4] = biological target: G-protein coupled receptor 55 (Homo sapiens, UniProt Q9Y2T6); assay: inhibition of LPI-stimulated GPR55 beta-arrestin translocation – imaging, U2OS, beta-arrestin-GFP, LPI agonist, primary screen (AID 2013); assay type: functional;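 note: antagonist potency measured as reduced agonist-driven arrestin aggregation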
Chain of G-protein coupled receptor 55 (Q9Y2T6 whole entry): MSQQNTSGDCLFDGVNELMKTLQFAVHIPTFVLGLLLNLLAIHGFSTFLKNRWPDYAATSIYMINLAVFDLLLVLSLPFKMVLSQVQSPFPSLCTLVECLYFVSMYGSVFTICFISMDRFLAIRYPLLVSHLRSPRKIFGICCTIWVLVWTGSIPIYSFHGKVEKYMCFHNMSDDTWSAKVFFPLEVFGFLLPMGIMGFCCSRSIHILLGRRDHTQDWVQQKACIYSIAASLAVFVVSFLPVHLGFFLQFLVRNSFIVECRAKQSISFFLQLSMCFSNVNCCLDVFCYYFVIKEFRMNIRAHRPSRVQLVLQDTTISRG

[5] = fluconazole-exposed Candida albicans growth modulators – fluorescence, retest, confirmation (AID 2467); assay type: functional, cell-based
[6] = viability loss in HEK293T cells – cell-based, cherry-picks, cytotoxicity control for HIV Vif inhibitor project, dose response (AID 652208); assay type: functional
[7] = reduced cellular PGC1a acetyl-lysine signal – cell-based, cherry-picked samples, dose response (AID 720514); assay type: functional;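 note: potency may reflect raised or lowered acetylation signal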
[8] = viability loss of HPDE-C7K cells – cell-based, fluorescence, HTS, primary screen (AID 431); assay type: functional; settings: Homo sapiens
[9] = biological target: T1, Nucleotide-binding oligomerization domain-containing protein 1 (Homo sapiens, UniProt Q9Y239); assay: SAR analysis of compounds that inhibit NOD1 - Set 3. [Related pubchem assays (depositor defined):AID1566, AID1575, AID1578, AID1849, AID1852, AID2333, AID2335, AID2466]; assay type: functional
T1 sequence (Q9Y239 whole entry): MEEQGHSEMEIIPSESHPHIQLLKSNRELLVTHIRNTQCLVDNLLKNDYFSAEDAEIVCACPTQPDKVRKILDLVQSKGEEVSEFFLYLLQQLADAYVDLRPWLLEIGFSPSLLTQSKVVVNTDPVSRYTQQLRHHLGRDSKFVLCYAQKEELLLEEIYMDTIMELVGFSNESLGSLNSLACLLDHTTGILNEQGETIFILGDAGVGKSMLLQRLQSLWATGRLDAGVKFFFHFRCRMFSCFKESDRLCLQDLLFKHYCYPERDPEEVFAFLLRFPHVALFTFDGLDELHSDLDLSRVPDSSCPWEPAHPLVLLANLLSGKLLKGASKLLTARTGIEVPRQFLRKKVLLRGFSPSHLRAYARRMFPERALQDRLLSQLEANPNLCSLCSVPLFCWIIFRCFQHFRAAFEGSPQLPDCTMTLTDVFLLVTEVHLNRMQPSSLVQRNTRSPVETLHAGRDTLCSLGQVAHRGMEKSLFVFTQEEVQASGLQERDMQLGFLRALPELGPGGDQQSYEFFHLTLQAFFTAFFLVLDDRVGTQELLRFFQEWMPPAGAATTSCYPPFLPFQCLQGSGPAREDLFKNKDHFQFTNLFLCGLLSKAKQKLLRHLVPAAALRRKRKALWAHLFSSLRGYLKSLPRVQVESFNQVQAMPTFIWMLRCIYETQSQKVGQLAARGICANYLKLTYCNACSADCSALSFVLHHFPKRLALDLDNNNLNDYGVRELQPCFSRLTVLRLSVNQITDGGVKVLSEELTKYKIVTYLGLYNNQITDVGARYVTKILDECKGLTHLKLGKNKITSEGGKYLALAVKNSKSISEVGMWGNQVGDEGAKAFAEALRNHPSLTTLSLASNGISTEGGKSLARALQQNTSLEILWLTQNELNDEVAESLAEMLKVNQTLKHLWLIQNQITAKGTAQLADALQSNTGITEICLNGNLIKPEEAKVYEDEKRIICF

Beta-galactosidase = Beta-galactosidase (Escherichia coli, UniProt Q8VNN2); assay: detection-enzyme interference by beta-gal modulators – biochemical, E. coli enzyme, set 3, artefact control for CCR6 antagonist project, dose response (AID 504712); assay type: functional
Chain of Beta-galactosidase (Q8VNN2 whole entry): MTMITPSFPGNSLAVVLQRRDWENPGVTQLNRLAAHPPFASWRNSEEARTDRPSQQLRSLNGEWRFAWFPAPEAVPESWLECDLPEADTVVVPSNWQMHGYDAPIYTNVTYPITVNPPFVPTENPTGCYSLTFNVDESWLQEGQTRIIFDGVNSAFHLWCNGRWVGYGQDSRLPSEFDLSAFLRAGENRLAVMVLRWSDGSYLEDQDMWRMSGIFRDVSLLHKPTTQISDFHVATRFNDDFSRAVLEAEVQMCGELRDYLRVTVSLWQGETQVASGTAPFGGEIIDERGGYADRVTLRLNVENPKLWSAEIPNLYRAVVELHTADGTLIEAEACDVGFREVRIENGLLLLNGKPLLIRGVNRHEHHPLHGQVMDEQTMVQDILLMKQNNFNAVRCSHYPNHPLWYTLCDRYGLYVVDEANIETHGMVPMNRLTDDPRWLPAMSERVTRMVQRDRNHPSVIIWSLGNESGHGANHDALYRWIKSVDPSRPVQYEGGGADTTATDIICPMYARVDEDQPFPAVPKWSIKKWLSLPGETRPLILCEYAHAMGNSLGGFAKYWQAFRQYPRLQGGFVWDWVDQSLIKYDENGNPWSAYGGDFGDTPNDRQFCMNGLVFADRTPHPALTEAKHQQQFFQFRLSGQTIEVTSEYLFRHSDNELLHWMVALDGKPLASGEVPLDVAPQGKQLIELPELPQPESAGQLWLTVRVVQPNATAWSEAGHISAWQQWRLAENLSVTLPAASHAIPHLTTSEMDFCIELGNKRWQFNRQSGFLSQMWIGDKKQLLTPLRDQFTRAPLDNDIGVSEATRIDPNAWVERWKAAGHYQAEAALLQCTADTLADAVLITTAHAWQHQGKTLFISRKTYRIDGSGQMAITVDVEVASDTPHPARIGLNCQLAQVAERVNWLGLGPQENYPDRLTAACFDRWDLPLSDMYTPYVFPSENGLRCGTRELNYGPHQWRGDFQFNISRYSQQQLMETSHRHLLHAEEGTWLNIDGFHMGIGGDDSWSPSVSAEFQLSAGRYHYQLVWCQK

Bcl-2-related protein A1 [10] = biological target: T2, Bcl-2-related protein A1 (Mus musculus, UniProt Q07440); assay: small-molecule antagonists of Bfl-1/BH3 interaction – biochemical, TR-FRET, mouse Bfl-1, confirmation (AID 621);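 note: TR-FRET binding of GST-Bfl-1 to FITC-labelled Bid peptide via terbium antibody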
T2 sequence (Q07440 whole entry): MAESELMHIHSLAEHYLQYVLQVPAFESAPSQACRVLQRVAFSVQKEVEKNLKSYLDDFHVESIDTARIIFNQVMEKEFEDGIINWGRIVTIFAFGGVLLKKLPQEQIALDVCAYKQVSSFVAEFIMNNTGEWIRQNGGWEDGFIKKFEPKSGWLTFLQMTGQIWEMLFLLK

[11] = Fluorescence-based cell-based high throughput dose response assay for inhibitors of the interaction of nucleotide-binding oligomerization domain containing 2 (NOD2) and the receptor-interacting serine-threonine kinase 2 (RIPK2).; assay type: functional, Homo sapiens; settings: Homo sapiens
[12] = NIH-3T3 fibroblast cytotoxicity, dose response, cytotoxicity control, cell-based, fluorescence, Alamar Blue, secondary assay (AID 2327); assay type: functional;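 note: NIH-3T3 mouse fibroblasts cultured with fluconazole at 8 µg/mL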
[13] = non-specific 3'UTR reporter inhibition in Clone20-Shn3RL – cell-based, Renilla luciferase, cherry-picked, counter-screen for Shn3 inhibitor project, dose response (AID 624133); assay type: functional
[14] = biological target: Nucleotide-binding oligomerization domain-containing protein 2 (Homo sapiens, UniProt Q9HC29); assay: inhibition of MDP-driven NOD2 NF-kB reporter – cell-based, set 3, SAR follow-up (AID 2799); assay type: functional
Chain of Nucleotide-binding oligomerization domain-containing protein 2 (Q9HC29 whole entry, the tested form may be a part): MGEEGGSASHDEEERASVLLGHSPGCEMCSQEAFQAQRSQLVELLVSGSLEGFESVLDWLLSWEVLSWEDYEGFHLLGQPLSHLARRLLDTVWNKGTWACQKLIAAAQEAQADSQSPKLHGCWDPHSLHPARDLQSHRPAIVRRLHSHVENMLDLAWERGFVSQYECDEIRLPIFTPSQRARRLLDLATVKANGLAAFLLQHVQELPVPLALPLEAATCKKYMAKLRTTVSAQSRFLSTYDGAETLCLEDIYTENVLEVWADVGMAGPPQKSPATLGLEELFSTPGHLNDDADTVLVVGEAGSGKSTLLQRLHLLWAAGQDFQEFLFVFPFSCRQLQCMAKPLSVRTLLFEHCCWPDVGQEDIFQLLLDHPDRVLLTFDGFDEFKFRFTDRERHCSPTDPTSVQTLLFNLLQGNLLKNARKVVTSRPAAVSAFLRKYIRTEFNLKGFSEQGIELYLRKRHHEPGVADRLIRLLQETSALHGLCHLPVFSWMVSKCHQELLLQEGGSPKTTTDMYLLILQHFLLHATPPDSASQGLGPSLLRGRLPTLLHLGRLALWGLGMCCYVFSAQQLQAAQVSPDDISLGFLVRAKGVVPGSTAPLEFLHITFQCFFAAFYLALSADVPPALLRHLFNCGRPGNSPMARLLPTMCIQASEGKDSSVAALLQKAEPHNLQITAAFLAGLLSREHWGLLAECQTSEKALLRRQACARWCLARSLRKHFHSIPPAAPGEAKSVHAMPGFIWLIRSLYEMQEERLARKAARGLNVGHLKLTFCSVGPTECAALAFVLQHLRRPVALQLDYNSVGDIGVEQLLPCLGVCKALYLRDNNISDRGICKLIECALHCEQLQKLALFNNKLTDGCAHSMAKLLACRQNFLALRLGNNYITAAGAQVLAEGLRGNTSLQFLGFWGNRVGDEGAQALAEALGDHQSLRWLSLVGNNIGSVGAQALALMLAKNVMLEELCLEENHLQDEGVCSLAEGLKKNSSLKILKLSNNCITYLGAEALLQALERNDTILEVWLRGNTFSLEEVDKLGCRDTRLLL

HEK293 = assay: SAR analysis of compounds that are cytotoxic to HEK293 - Set 3. [Related pubchem assays (depositor defined):AID1575, AID1578, AID1848, AID1849, AID2001, AID2333, AID2334, AID2335, AID2337, AID2469]; assay type: functional, cell-based; settings: Homo sapiens
[15] = reduction of Shn3 3'UTR-driven luciferase in osteoblasts – cell-based, Clone20 osteoblasts, firefly luciferase, cherry-picked, dose response (AID 624132); assay type: functional;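 note: firefly luciferase luminescence from reporter carrying the Shn3 3'UTR in osteoblasts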
[16] = biological target: Glyceraldehyde-3-phosphate dehydrogenase (Homo sapiens, UniProt P04406)
Chain of Glyceraldehyde-3-phosphate dehydrogenase (P04406 whole entry): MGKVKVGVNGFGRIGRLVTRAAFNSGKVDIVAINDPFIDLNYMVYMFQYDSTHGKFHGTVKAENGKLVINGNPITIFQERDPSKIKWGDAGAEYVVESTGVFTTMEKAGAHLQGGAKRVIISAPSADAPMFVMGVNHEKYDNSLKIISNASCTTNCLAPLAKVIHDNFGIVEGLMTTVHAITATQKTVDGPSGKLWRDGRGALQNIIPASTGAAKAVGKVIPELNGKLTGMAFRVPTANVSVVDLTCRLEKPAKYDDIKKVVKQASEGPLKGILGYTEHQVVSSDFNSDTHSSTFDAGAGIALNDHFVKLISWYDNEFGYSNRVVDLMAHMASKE

Tumor necrosis factor = Tumor necrosis factor (Homo sapiens, UniProt P01375); assay: analog potency on TNFa NF-kB signaling – cell-based, set 3, SAR follow-up (AID 2801); assay type: functional
Chain of Tumor necrosis factor (P01375 whole entry): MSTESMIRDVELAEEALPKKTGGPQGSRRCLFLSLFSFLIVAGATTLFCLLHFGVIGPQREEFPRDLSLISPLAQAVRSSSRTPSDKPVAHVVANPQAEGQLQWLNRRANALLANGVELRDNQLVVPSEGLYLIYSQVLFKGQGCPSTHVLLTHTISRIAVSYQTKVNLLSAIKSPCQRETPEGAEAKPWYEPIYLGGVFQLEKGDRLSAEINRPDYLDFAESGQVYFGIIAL

Beta Lactamase = Beta Lactamase (Pseudomonas aeruginosa, UniProt Q932Y6); assay: BLA reporter interference, concentration series – BLA reporter cells, FRET fluorescence, artefact control for NOD2-RIPK2 interaction inhibitor project, dose response (AID 651552); assay type: functional, cell-based
Chain of Beta Lactamase (Q932Y6 whole entry): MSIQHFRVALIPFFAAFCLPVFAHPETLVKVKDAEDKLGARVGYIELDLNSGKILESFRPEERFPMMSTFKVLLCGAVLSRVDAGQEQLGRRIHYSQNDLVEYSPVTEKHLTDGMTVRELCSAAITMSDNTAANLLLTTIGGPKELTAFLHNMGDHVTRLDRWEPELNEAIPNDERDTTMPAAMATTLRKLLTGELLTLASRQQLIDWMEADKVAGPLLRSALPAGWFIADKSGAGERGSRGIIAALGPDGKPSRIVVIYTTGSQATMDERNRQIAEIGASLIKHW

Bcl-2-related protein A1 [17] = biological target: T2, Bcl-2-related protein A1; assay: Bfl-1 binding inhibitors, SAR follow-up, biochemical, fluorescence polarization (AID 1070)
Bcl-2-related protein A1 [18] = biological target: T2, Bcl-2-related protein A1; assay: displacement of Bid BH3 peptide from Bfl-1 – biochemical, fluorescence polarization, FITC-Bid, mouse, primary screen (AID 432)
[19] = biological target: T3, Hepatocyte nuclear factor 4-alpha (Homo sapiens, UniProt P41235); assay type: functional, cell-based;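 note: biochemical luminescence-based dose-response counterscreen measuring inhibition of HNF4 dimerization, run alongside a screen for blockers of ABHD5–perilipin-5 interaction; split luciferase complementation of HNF4 fusion proteins in cell lysate measuring dimerization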
T3 sequence (P41235 whole entry): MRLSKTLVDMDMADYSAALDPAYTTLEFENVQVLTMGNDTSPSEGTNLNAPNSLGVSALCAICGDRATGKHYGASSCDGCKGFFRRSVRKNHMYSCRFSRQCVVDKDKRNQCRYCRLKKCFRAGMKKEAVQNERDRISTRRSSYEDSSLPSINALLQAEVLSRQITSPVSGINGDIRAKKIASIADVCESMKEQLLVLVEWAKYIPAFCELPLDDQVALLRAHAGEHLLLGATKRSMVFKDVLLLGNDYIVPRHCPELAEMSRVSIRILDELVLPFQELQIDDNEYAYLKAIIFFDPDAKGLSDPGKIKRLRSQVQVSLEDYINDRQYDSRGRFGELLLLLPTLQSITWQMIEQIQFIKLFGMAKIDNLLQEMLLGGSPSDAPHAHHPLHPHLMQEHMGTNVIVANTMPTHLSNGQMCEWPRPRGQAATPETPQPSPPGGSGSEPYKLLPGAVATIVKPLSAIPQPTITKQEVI

[20] = HPDE-C7 pancreatic duct cell viability loss – fluorescence, HTS (AID 430); assay type: functional, cell-based; settings: Homo sapiens
[21] = alpha-synuclein stem-loop luciferase translation blockers – H4 neuroglioma cells, luminescence, confirmation (AID 1988); assay type: functional, cell-based
[22] = biological target: Luciferin 4-monooxygenase (Photinus pyralis, UniProt P08659); assay: inhibition of purified Photinus pyralis luciferase – biochemical, luminescence, dose response (AID 1891)
Chain of Luciferin 4-monooxygenase (P08659 whole entry): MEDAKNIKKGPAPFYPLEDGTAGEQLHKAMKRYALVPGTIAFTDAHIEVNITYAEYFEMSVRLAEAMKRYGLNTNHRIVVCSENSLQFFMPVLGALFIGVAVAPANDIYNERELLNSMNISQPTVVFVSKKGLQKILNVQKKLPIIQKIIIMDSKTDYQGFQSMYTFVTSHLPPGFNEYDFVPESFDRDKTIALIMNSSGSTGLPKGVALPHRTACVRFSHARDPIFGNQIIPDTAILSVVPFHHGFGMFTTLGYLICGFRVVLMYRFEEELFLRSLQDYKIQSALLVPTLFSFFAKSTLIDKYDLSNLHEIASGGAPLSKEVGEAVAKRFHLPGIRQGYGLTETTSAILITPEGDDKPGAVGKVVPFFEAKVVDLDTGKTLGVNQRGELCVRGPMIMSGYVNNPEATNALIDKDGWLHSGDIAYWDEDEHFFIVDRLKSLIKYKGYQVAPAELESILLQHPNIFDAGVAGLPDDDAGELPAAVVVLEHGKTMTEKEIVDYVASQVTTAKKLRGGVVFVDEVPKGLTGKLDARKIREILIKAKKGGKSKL

[23] = luciferase reporter signal suppression in cells – H4 neuroglioma cells, luminescence, dose response (AID 1990); assay type: functional, cell-based
[24] = Fluorescence Cell-Based Dose Response to Identify Inhibitors of Thrombin Receptor-Activating Peptide SFLLRN-Mediated P-Selectin Induction on Platelets. [Related pubchem assays: 1663 (Primary HTS), 1889 (retest at dose ), 1891 (counterscreen), 1678 (Project Summary)]; assay type: functional
[25] = Luminescence Cell-Based Dose Response HTS to Identify Inhibitors of 5'UTR Stem-Loop Driven Prion Protein mRNA Translation in H4 Neuroglioblastoma Cells. [Related pubchem assays: 1827 (Project Summary), 1813 (Primary HTS)]; assay type: functional
[26] = Luminescence Cell-Based Dose Confirmation HTS to Identify Inhibitors of Platelet Dense Granule Release. [Related pubchem assays: 1663 (Primary HTS), 1678 (Summary of Project)]; assay type: functional

For `O=C(O)c1[nH]nnc1-c1ccccc1`, which IC50 [1] is on record?
Its IC50 is > 67 µM (not active).

What about the IC50 [2] of the same compound?
Its IC50 is 13 µM (not active).

Which IC50 (Galanin receptor type 2) does the source give for `Cc1nnc(SCC(=O)Nc2cccc(S(=O)(=O)N(C)c3ccccc3)c2)s1` here?
The IC50 was > 42 µM (not active).

For `COc1ccc(-c2cc(N)n(S(=O)(=O)c3c(F)c(F)c(F)c(F)c3F)n2)cc1OC`, which AC50 [3] is on record?
Its AC50 is 20.2 µM (active).

What about the IC50 [4] of the same compound?
The IC50 was 1.18 µM (active).

What about the EC50 [5] of the same compound?
The EC50 was 3.9 µM (active).

And the AC50 [6]?
Its AC50 is 3.69 µM (active).

And the AC50 [7]?
The AC50 was 8.51 µM (active).

What about the EC50 [8] of the same compound?
Its EC50 is 2.15 µM (active).

What about the IC50 [9] of the same compound?
The IC50 was 16.2 µM (active).

What about the IC50 (Beta-galactosidase) of the same compound?
The IC50 was > 66.6 µM (inactive).

And the IC50 (Bcl-2-related protein A1 [10])?
The IC50 was 4.33 µM (active) and 4.96 µM (active).

And the IC50 [11]?
Its IC50 is 951 nM (active).

What about the EC50 [12] of the same compound?
The EC50 was 5.96 µM (inconclusive).

What about the AC50 [13] of the same compound?
Its AC50 is 4.25 µM (active).

And the IC50 [14]?
The IC50 was 16.4 µM (active).

What about the IC50 (HEK293) of the same compound?
The IC50 was > 20 µM (inactive).

And the AC50 [15]?
The AC50 was 896 nM (active).

And the IC50 [16]?
Its IC50 is > 100 µM (not active).

What about the IC50 (Tumor necrosis factor) of the same compound?
Its IC50 is 10.3 µM (active).

What about the IC50 (Beta Lactamase) of the same compound?
Its IC50 is 34.3 µM (inactive).

And the IC50 (Bcl-2-related protein A1 [17])?
Its IC50 is 5.39 µM (active).

What about the IC50 (Bcl-2-related protein A1 [18]) of the same compound?
The IC50 was 5.82 µM (active).

What about the IC50 [19] of the same compound?
Its IC50 is 6.26 µM (active).

What about the EC50 [20] of the same compound?
The EC50 was 2.82 µM (active).

With `COc1cc2c(cc1OC)-c1cc(Nc3ccccc3C)nc(=O)n1CC2` as the compound, how does the EC50 [21] read?
The EC50 was 17.8 µM (active).

And the EC50 [22]?
Its EC50 is > 112 µM (not active).

What about the EC50 [23] of the same compound?
The EC50 was 15.6 µM (active).

What about the EC50 [24] of the same compound?
Its EC50 is < 300 nM (active).

What about the EC50 [25] of the same compound?
The EC50 was 49.5 µM (active).

What about the EC50 [26] of the same compound?
Its EC50 is 240 nM (active).
